# Results reported in publication PMC9551036, “A selective and orally bioavailable VHL-recruiting PROTAC achieves SMARCA2 degradation in vivo” (Nature Communications, 2022).
# “And” between values parts separate entries of the source, which are not always exact repeats. Equal entries are not always repeated. Where two headings read alike, the source gives them in different places.
# Assay: Pharmacokinetic analyses in mouse
# Format: in vivo
# Conditions: mouse; for AUC(0-inf): read-out: AUCinf
# Experimental: Compound concentrations in plasma aliquots were measured by quantitative HPLC-MS/MS using an internal standard. Calibration and quality control samples were prepared using blank plasma from untreated animals. Samples were precipitated with acetonitrile and injected into a HPLC system (Agilent 1200). Separation was performed by gradients of 5 mmol/L ammonium acetate pH 4.0 and acetonitrile with 0.1% formic acid on a 2.1 mm by 50 mm XBridge BEH C18 reversed-phase column with 2.5 µm particles (Waters). The HPLC was interfaced by ESI operated in positive ionisation mode to a triple quadrupole mass spectrometer (5000 or 6500+ Triple Quad System, SCIEX) operated in multiple reaction monitoring mode. Transitions were 532.4 to 432.8 m/z for BI01810284, 525.6 to 425.7 m/z for BI01802983 and 1021.6 to 624.2 m/z for BI01580883. Chromatograms were analyzed with Analyst (SCIEX) and pharmacokinetic parameters were calculated by non-compartmental analysis using BI-proprietary software.
# [1] = 30 mg/kg p.o., NCA, individual animals, 30 mg/kg
smiles,measurement,setting,value
Cc1ncsc1-c1ccc(C(CCC(C)CCN2CCC(c3ccc4c(c3)n(C3CCCC3)c3nc(=O)c5c(Br)cccc5n43)CC2)NC(=O)C2CC(O)CN2C(=O)C(NC(=O)C2(F)CC2)C(C)(C)C)cc1 (centres unmarked) [ACBI2],Plasma concentration,"30 mg/kg p.o., 2 h, individual animals, 30 mg/kg",4460 nM and 4880 nM
same,Plasma concentration,"30 mg/kg p.o., 6 h, individual animals, 30 mg/kg",3380 nM and 2650 nM
same,Plasma concentration,"30 mg/kg p.o., 24 h, individual animals, 30 mg/kg",173 nM and 175 nM
same,AUC,[1],53.9 µM·h and 47.2 µM·h
same,AUCinf,[1],55 µM·h and 48.3 µM·h
same,F,[1],23.8% and 20.9%
same,concentration at 0.25 h,"plasma, intravenous, 5 mg/kg, 5 mg/kg i.v., time 0.25 h, individual animals, read-out: Concentration",7530 nM
same,concentration at 1 h,"plasma, intravenous, 5 mg/kg, 5 mg/kg i.v., time 1 h, individual animals, read-out: Concentration",6000 nM
same,concentration at 6 h,"plasma, intravenous, 5 mg/kg, 5 mg/kg i.v., time 6 h, individual animals, read-out: Concentration",1620 nM
same,concentration at 24 h,"plasma, intravenous, 5 mg/kg, 5 mg/kg i.v., time 24 h, individual animals, read-out: Concentration",85.5 nM
same,AUC,"plasma, iv, 5 mg/kg, 5 mg/kg i.v., individual animals, read-out: AUC",34.2 µM·h
same,AUC(0-inf),"plasma, iv, 5 mg/kg, 5 mg/kg i.v., individual animals",34.7 µM·h
same,concentration at 0.25 h,"plasma, iv, 5 mg/kg, 5 mg/kg i.v., 0.25 h, individual animals, read-out: Plasma concentration",6800 nM
same,concentration at 1 h,"plasma, iv, 5 mg/kg, 5 mg/kg i.v., 1 h, individual animals, read-out: Plasma concentration",5130 nM
same,concentration at 6 h,"plasma, iv, 5 mg/kg, 5 mg/kg i.v., 6 h, individual animals, read-out: Plasma concentration",1220 nM
same,concentration at 24 h,"plasma, iv, 5 mg/kg, 5 mg/kg i.v., 24 h, individual animals, read-out: Plasma concentration",94.9 nM
same,AUC,"plasma, iv, 5 mg/kg, 5 mg/kg i.v., NCA, individual animals, read-out: AUC",34.2 µM·h
same,AUC(0-inf),"plasma, iv, 5 mg/kg, 5 mg/kg i.v., NCA, individual animals",34.7 µM·h
same,clearance,"plasma, iv, 5 mg/kg, 5 mg/kg i.v., NCA, individual animals, read-out: CL",2.25 mL/min/kg
same,Vd,"plasma, iv, 5 mg/kg, 5 mg/kg i.v., NCA, individual animals, read-out: Vss",0.536 L/kg
same,clearance,"plasma, iv, 5 mg/kg, 5 mg/kg i.v., read-out: clearance",2.1 mL/min/kg
same,concentration at 0.333 h,"plasma, oral, 30 mg/kg, 30 mg/kg p.o., time 0.333 h, individual animals, read-out: Concentration",898 nM
same,concentration at 1 h,"plasma, oral, 30 mg/kg, 30 mg/kg p.o., time 1 h, individual animals, read-out: Concentration",4310 nM
same,concentration at 2 h,"plasma, oral, 30 mg/kg, 30 mg/kg p.o., time 2 h, individual animals, read-out: Concentration",4290 nM
same,concentration at 6 h,"plasma, oral, 30 mg/kg, 30 mg/kg p.o., time 6 h, individual animals, read-out: Concentration",2750 nM
same,concentration at 24 h,"plasma, oral, 30 mg/kg, 30 mg/kg p.o., time 24 h, individual animals, read-out: Concentration",265 nM
same,bioavailability,"plasma, oral, 30 mg/kg, 30 mg/kg p.o. vs 5 mg/kg i.v., read-out: F% p.o. (oral bioavailability)",22%
same,bioavailability,"plasma, po, 30 mg/kg, 30 mg/kg p.o. vs 5 mg/kg i.v., individual animals, read-out: F",21.5%
same,AUC,"plasma, po, 30 mg/kg, 30 mg/kg p.o., individual animals, read-out: AUC",47.5 µM·h
same,AUC(0-inf),"plasma, po, 30 mg/kg, 30 mg/kg p.o., individual animals",49.5 µM·h
same,concentration at 0.333 h,"plasma, po, 30 mg/kg, 30 mg/kg p.o., 0.333 h, individual animals, read-out: Plasma concentration",898 nM
same,concentration at 1 h,"plasma, po, 30 mg/kg, 30 mg/kg p.o., 1 h, individual animals, read-out: Plasma concentration",4310 nM
same,concentration at 2 h,"plasma, po, 30 mg/kg, 30 mg/kg p.o., 2 h, individual animals, read-out: Plasma concentration",4290 nM
same,concentration at 6 h,"plasma, po, 30 mg/kg, 30 mg/kg p.o., 6 h, individual animals, read-out: Plasma concentration",2750 nM
same,concentration at 24 h,"plasma, po, 30 mg/kg, 30 mg/kg p.o., 24 h, individual animals, read-out: Plasma concentration",265 nM
same,AUC,"plasma, po, 30 mg/kg, 30 mg/kg p.o., NCA, individual animals, read-out: AUC",47.5 µM·h
same,AUC(0-inf),"plasma, po, 30 mg/kg, 30 mg/kg p.o., NCA, individual animals",49.5 µM·h
same,bioavailability,"plasma, po, 30 mg/kg, 30 mg/kg p.o., NCA, individual animals, read-out: F",21.5%
